Assay [1] has as its system IL-8. Put plainly: Inhibition of PMA/PHA-induced IL-8 production (ELISA, supernatants of NFκB reporter assay). The settings on record: Homo sapiens. It is filed as cell-based. The protocol:
(§1) Stable human Jurkat T-cells containing an NFκB binding site (from the MHC promoter) fused to a minimal SV-40 promoter driving luciferase expression were used in this experiment. Cells were split to 3×10^5 cells/mL every 2-3 days (cell concentration should not exceed 1×10^6 cells/mL to keep the cells proliferating in log phase). These cells were counted, resuspended in fresh medium containing 10% Serum-Plus at a density of 1×10^6 cells/mL and plated in 96 well round bottom plates (200 μL per well) 18 hours prior to starting the experiment.
(§2) Compounds of this invention, dissolved in dimethyl sulfoxide (3.3, 0.33 and 0.03 μg/mL), were then added to the 96 well plates containing the cells and the plates are incubated for 0.5 h at 37° C. Then 50 ng/mL of phorbol 12-myristate-13-acetate (PMA) and 1 μg/mL of phytohemagglutinin (PHA) was added to each well and the cells were incubated for an additional 5 h at 37° C. The plates were centrifuged at 2200 RPM for 3 minutes at room temperature and then the medium was removed. To each well was added 60 μL of cell lysis buffer and the plates were left at room temperature for 0.25 h. Then 40 μL of each cell extract was transferred to a black 96 well plate and 50 μL of luciferase substrate buffer was added. Luminescence was immediately measured using a Packard TopCount.
(§3) Cytokine levels in the supernatants (25-50 μL aliquots) were determined by ELISA.
On the technique in general: In an ELISA, binding on a coated surface is turned into a signal by an enzyme label.

For assay [2], the system named is IL-2. Put plainly: Inhibition of PMA/PHA-induced IL-2 production (ELISA, supernatants of AP-1 reporter assay). It is filed as cell-based. Particulars: Homo sapiens. The protocol:
as §1, §2
(§4) For AP-1, the assay was run as described above for NFκB except stable Jurkat T-cells were used that contained a the -73 collagenase promoter driving luciferase expression. In addition, the concentration of PMA used was 5 ng/mL.
as §3

The subject of assay [3] is NFκB. Put plainly: NFκB assay: luciferase reporter in stable Jurkat T-cells, PMA/PHA stimulated. It is filed as cell-based. Particulars: Homo sapiens, PMA 50 ng/mL + PHA 1 μg/mL, 5 h, read-out: NFkB IC50. As for the experimental part:
as §1, §2
(In general: In a reporter assay the amount or activity of a reporter protein is the signal.)

The test system of assay [4] is AP-1. Put plainly: AP-1 assay: -73 collagenase promoter luciferase reporter in stable Jurkat T-cells, PMA/PHA stimulated. Format: cell-based. Particulars: Homo sapiens, PMA 5 ng/mL + PHA 1 μg/mL, 5 h. The protocol:
as §1, §2, §4
The results of the above assays (expressed as IC50 's, μM) for representative compounds of this invention, as percent inhibition versus control, are presented in Table 3. β-actin was employed as a control […] indicating effects on transcription. The lack of β-actin activity evidences selectivity of the test compounds for the transcription factors AP-1 and NFκB.

Assay [5] relates to mice. Particulars: Morris et al., Transplantation Proceedings 1990; cited from earlier work.
The test system of assay [6] is mice. Particulars: Morris et al., Transplantation Proceedings 1990; cited from earlier work. The source holds these as a separate data set.

As to `CC1=CC(=O)N(Nc2nc(-c3ccccc3)nc3ccccc23)C1=O` [Compound 1, 4-(N-AMINOCITRACONAMIDO)-2-PHENYLQUINAZOLINE], the IC50 worked out at 2 nM in assay [1], 10 nM in assay [2], 100 nM in assay [3] and 200 nM in assay [4].

As for `CC1=CC(=O)N(Nc2nc(-c3cccs3)nc3cnccc23)C1=O` [Compound 2, 4-(N-AMINOCITRACONAMIDO)-2-(2'-THIENYL)PYRIDOPYRIMIDINE], the IC50 in assay [1] was 100 nM; in assay [2], 700 nM; in assay [3] it was 100 nM; in assay [4] it was 100 nM.

For the compound `CC1=CC(=O)N(Nc2nc(C(F)(F)F)nc3ccccc23)C1=O` [Compound 3, 4-(N-AMINOCITRACONAMIDO)-2-TRIFLUOROMETHYLQUINAZOLINE], the IC50 in assay [1] is 30 nM; in assay [2], 50 nM; in assay [3], 10 nM; in assay [4], 100 nM.

Regarding `COc1cccc2nc(C(F)(F)F)nc(NN3C(=O)C=C(C)C3=O)c12` [Compound 4, 4-(N-AMINOCITRACONAMIDO)-5-METHOXY-2-TRIFLUOROMETHYLQUNINAZOLINE], the IC50 in assay [1] was determined as 50 nM; in assay [2] it was 120 nM; in assay [3], 10 nM; in assay [4], 10 nM.

Take `CC1=CC(=O)N(Nc2nc(C(F)(F)F)nc3cccc(C)c23)C1=O` [Compound 5, 4-(N-AMINOCITRACONAMIDO)-5-METHYL-2-TRIFLUOROMETHYLQUINAZOLINE]: the 50% inhibitory concentration (IC50) in assay [1] was found to be 2 nM; in assay [2] it was 20 nM; in assay [3], 200 nM; in assay [4], 500 nM.

With `CC1=CC(=O)N(Nc2nc(C(F)(F)F)nc3cc(Cl)ccc23)C1=O` [Compound 6, 4-(N-AMINOCITRACONAMIDO)-7-CHLORO-2-TRIFLUOROMETHYLQUINAZOLINE], the IC50 in assay [1] came out at 50 nM; in assay [2], 500 nM; in assay [3], 100 nM; in assay [4] it was 300 nM.

Turning to `CC1=CC(=O)N(Nc2nc(C(F)(F)F)nc3cc(N4CCCCC4)ccc23)C1=O` [Compound 7, 4-(N-AMINOCITRACONAMIDO)-7-(N-PIPERIDYL)-2-TRIFLUOROMETHYLQUNINAZOLINE], the results for the IC50 in assay [1], in assay [2] and in assay [3] were 5 nM, 70 nM and 100 nM, respectively.

In the case of `CSc1ccc2nc(C(F)(F)F)nc(NN3C(=O)C=C(C)C3=O)c2c1` [Compound 8, 4-(N-AMINOCITRACONAMIDO)-6-METHYLTHIO-2-TRIFLUOROMETHYLQUNINAZOLINE], the IC50 in assay [1] was found to be 50 nM; in assay [2] it was 40 nM; in assay [3], 60 nM; in assay [4] it was 90 nM.

Turning to `CC1=CC(=O)N(Nc2nc(C(F)(F)F)nc3ccc(S(C)(=O)=O)cc23)C1=O` [Compound 10, 4-(N-AMINOCITRACONAMIDO)-6-METHYLSULFONYL-2-TRIFLUOROMETHYLQUNINAZOLINE], the IC50 in assay [3] turned out to be 8000 nM; in assay [4], 10000 nM.

On to `CC1=CC(=O)N(Nc2nc(-c3cccs3)nc3ccccc23)C1=O` [Compound 11, 4-(N-AMINOCITRACONAMIDO)-2-(2'-THIENYL)QUNINAZOLINE], for which the IC50 in assay [3] stood at 40 nM; in assay [4], 70 nM.

For the compound `CC1=CC(=O)N(N(C)c2nc(-c3cccs3)nc3ccccc23)C1=O` [Compound 12, 4-(N-METHYL-N-AMINOCITRACONAMIDO)-2-(2'-THIENYL)QUNINAZOLINE], the IC50 was determined as 2200 nM in assay [3] and 1700 nM in assay [4].

With `COc1cccc2nc(-c3cccs3)nc(NN3C(=O)C=C(C)C3=O)c12` [Compound 13, 4-(N-AMINOCITRACONAMIDO)-5-METHOXY-2-(2'-THIENYL)QUINAZOLINE], the IC50 in assay [3] and in assay [4] was 8 nM each time.

For `COc1ccc2nc(-c3cccs3)nc(NN3C(=O)C=C(C)C3=O)c2c1` [Compound 14, 4-(N-AMINOCITRACONAMIDO)-6-METHOXY-2-(2'-THIENYL)QUNINAZOLINE], the IC50 in assay [3] came out at 2 nM; in assay [4], 3 nM.

On to `COc1ccc2c(NN3C(=O)C=C(C)C3=O)nc(-c3cccs3)nc2c1` [Compound 15, 4-(N-AMINOCITRACONAMIDO)-7-METHOXY-2-(2'-THIENYL)QUINAZOLINE], for which the results for the IC50 in assay [3] and in assay [4] were 10 nM and 20 nM, respectively.

On to `COc1cccc2c(NN3C(=O)C=C(C)C3=O)nc(-c3cccs3)nc12` [Compound 16, 4-(N-AMINOCITRACONAMIDO)-8-METHOXY-2-(2'-THIENYL)QUNINAZOLINE], for which the IC50 in assay [3] and in assay [4] was 20 nM in each case.

Regarding `COc1cc2nc(-c3cccs3)nc(NN3C(=O)C=C(C)C3=O)c2cc1OC` [Compound 17, 4-(N-AMINOCITRACONAMIDO)-6,7-DIMETHOXY-2-(2'-THIENYL)QUINAZOLINE], the IC50 amounted to 40 nM in assay [3] and 70 nM in assay [4].

As to `COc1cc2c(NN3C(=O)C=C(C)C3=O)nc(-c3cccs3)nc2c(OC)c1OC` [Compound 18, 4-(N-AMINOCITRACONAMIDO)-6,7,8-TRIMETHOXY-2-(2'-THIENYL)QUNINAZOLINE], the IC50 in assay [3] was determined as 10 nM; in assay [4] it was 20 nM.

Consider `COc1cccc2nc(-c3cccs3)nc(N(C)N3C(=O)C=C(C)C3=O)c12` [Compound 19, 4-(N-METHYL-N-AMINOCITRACONAMIDO)-5-METHOXY-2-(2'-THIENYL)QUNINAZOLINE], for which the values for the IC50 in assay [3] and in assay [4] were 100 nM and 70 nM, respectively.

Turning to `CC1=CC(=O)N(Nc2nc(-c3cccs3)nc3cccc(F)c23)C1=O` [Compound 20, 4-(N-AMINOCITRACONAMIDO)-5-FLUORO-2-(2'-THIENYL)QUINAZOLINE], the IC50 in assay [3] is 200 nM; in assay [4], 70 nM.

With `CC1=CC(=O)N(Nc2nc(-c3cccs3)nc3cccc(Cl)c23)C1=O` [Compound 21, 4-(N-AMINOCITRACONAMIDO)-5-CHLORO-2-(2'-THIENYL)QUINAZOLINE], the figures for the IC50 in assay [3] and in assay [4] were 20 nM and 30 nM, respectively.

`CC1=CC(=O)N(Nc2nc(-c3cccs3)nc3cccc(C)c23)C1=O` [Compound 22, 4-(N-AMINOCITRACONAMIDO)-5-METHYL-2-(2'-THIENYL)QUNINAZOLINE]: the IC50 was 10 nM in assay [3] and 30 nM in assay [4].

`CC1=CC(=O)N(Nc2nc(-c3cccs3)nc3cc(N(C)C)ccc23)C1=O` [Compound 23, 4-(N-AMINOCITRACONAMIDO)-7-DIMETHYLAMINO-2-(2'-THIENYL)QUINAZOLINE]: the concentration for half-maximal inhibition (IC50) in assay [3] and in assay [4] was 40 nM in each case.

As to `O=P1(N(CCCl)CCCl)NCCCO1` (stereo not shown) [cyclophosphamide], the “activity in the popliteal lymph node (PLN) model” value in assay [5] is recorded as “active”. In assay [6], the “activity in the delayed-type hypersensitivity (oxazolone) model” value was “active”.

One may read the IC50 as the concentration that gives 50% inhibition.
